Where two headings read alike, the source gives them in different places.
Experiments:
PmSiaT = target: T1, PmSiaT (Proteus mirabilis, UniProt B4EZY7); assay: Isothermal titration calorimetry, PmSiaT; type: binding
T1 construct: made in house
T1 sequence (B4EZY7 1-496): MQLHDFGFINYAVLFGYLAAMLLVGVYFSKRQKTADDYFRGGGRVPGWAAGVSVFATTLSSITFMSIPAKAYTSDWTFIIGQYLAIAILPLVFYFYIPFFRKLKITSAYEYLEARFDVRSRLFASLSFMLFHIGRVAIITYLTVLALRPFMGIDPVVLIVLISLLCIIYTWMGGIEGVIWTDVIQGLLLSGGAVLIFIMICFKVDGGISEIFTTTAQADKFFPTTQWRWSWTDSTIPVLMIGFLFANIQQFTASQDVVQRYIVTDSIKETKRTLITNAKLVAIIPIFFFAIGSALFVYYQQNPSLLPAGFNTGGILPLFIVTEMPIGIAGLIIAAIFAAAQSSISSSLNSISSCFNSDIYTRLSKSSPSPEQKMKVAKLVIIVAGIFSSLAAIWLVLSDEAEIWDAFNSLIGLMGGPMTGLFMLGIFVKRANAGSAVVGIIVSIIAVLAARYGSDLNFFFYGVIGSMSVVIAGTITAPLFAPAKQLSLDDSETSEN
Experimental: (§1) The binding thermodynamic analysis performed via isothermal titration calorimetry (ITC) provides insights into dissociation constants (Kd) and the binding driving forces of compounds 3a, 3e, and 3f with PmSiaT and SaSiaT.
(§2) Isothermal titration calorimetric experiments were performed on an ITC200 instrument (MicroCal, Northampton, USA) at 25 °C using standard instrument settings (reference power of 6 μcal s^–1, stirring speed of 750 rpm, feedback mode high, and filter period of 2 s). Protein solutions were dialyzed against ITC buffer (50 mM Tris–HCl, 150 mM NaCl, with 0.0174% (w/v) DDM, pH 8.0 at 5 °C) prior to the experiments, and all the samples were prepared using the dialysate buffer to minimize dilution effects. Protein concentrations were determined spectrophotometrically with the specific absorbance at 280 nm employing an extinction coefficient of 76,445 mol^–1 cm^–1 for PmSiaT and 75,750 M^–1 cm^–1 for SaSiaT. […] In a typical experiment, a 0.3–1.0 mM inhibitor solution was titrated to a solution containing 30–50 μM of PmSiaT or 13–20 μM of SaSiaT to ensure >90% saturation. Baseline correction, peak integration, and nonlinear regression analysis of experimental data were performed using the NITPIC (version 1.2.2.)[41] and SEDPHAT (version 12.1b)[42] software packages. The stoichiometry parameter was manually constrained to a value of 1. Experiments were performed in triplicate and the 68% confidence intervals from global fitting of three experiments were calculated as an estimate of the experimental error. All the titration curves can be found in Figures S10–S15.

SaSiaT = SaSiaT (Staphylococcus aureus, UniProt A0A0H2XJ46); assay: Isothermal titration calorimetry, SaSiaT; type: binding
Experimental: as §1, §2

LogD pH 7.4 shake flask = type: physicochemical; details: 1-octanol / phosphate buffer pH 7.4
Experimental: Distribution coefficients between 1-octanol and phosphate buffer pH 7.4 were determined with a shake flask method with the LC–UV detection of the compound concentration in both phases. The reported range was from −1 to +4.

[1] = Metabolic stability in human liver microsomes; type: in vitro ADME; details: for microsomal CLint at 1 µM: human liver microsomes, read-out: intrinsic clearance Clint; for Metabolic stability in human microsomes, Exp. 1 / Metabolic stability in human microsomes, Exp. 2: intrinsic clearance, 1 µM compound
Experimental: (§3) The assay was run in a 96-deep well format and solutions were prepared containing microsomes in phosphate buffer. The microsomes employed were from humans, rats, and mice. The reaction was initiated by addition of NADPH after preincubation at 37 °C with test compounds. The reaction was stopped by the addition of acetonitrile (ACN) at six time points (0, 5, 10, 15, 25, and 45 min), the samples were centrifuged, and the supernatant was diluted to determine the loss of compound by LC–MS/MS. Two incubations per compound per species. For further details regarding working concentrations, volumes, and final concentrations at incubation, refer to the supplementary section (Table S6). […]
(§4) Metabolic Metabolic Metabolic stability in stability in stability in Plasma-protein human mouse rat In vitro plasma stability binding by RED
(§5) Assay/compo microsome microsome microsome (% compound remaining after (% unbound und s s s 23 h) compound, (µL/min/m (µL/min/m (µL/min/m average n=2) g protein) g protein) g protein)
(§6) Exp. Exp. Exp. Exp. Exp. Exp. Hum Mou Ra Do Mini Hum Mou Ra […]
(§7) Conc. of W orki ng Vol ume i n Fi nal conc. At sol uti on assay incubation
(§8) 577 m g / m L520 µ L0. […]

[2] = Metabolic stability in mouse liver microsomes; type: in vitro ADME; details: for Metabolic stability in mouse microsomes, Exp. 1 / Metabolic stability in mouse microsomes, Exp. 2: intrinsic clearance, 1 µM compound; for microsomal CLint at 1 µM: mouse liver microsomes, read-out: intrinsic clearance Clint
Experimental: as §3
Conc. of W orki ng Vol ume i n Fi nal conc. At
sol uti on assay incubation
577 m g / m L520 µ L0. 5 m g / m L […]
NADPH i n buffe r 7. 5 m M 80 µ L 1 m M

[3] = Metabolic stability in rat liver microsomes; type: in vitro ADME; details: for Metabolic stability in rat microsomes, Exp. 1 / Metabolic stability in rat microsomes, Exp. 2: intrinsic clearance, 1 µM compound; for microsomal CLint at 1 µM: rat liver microsomes, read-out: intrinsic clearance Clint
Experimental: as §3, §4, §5, §6, §7, §8

[4] = Plasma-protein binding by RED, range over three species; type: in vitro ADME; details: pH 7.2, range over human, mouse, and rat, read-out: free fraction (plasma protein binding by RED)
Description: Next, we investigated the physiochemical and absorption, distribution, metabolism, and excretion (ADME) properties of compounds 3a, 3e, and 3f (Tables S5 and S6). […] The logD at pH 7.4 was below 0 for all three compounds (<−0.5 for compounds 3a and 3e). […] Overall, these features represent promising starting points for further development of this class of molecules.
The assay was run in a deep well plate containing RED inserts with semipermeable dialysis membranes. The reaction was started by adding the compounds to a blank plasma in a 5 μM concentration. Opposite to the blank plasma was a compartment containing isotonic sodium–phosphate buffer (pH 7.2) separated from the plasma by the membrane. The plate was equilibrated in a water bath at 37 °C for 4 h. Samples from both the plasma and the buffer side were matrix compensated before protein precipitation. The samples were centrifuged, and the supernatants were diluted and analyzed by LC–MS/MS to determine the % unbound compound. Two incubations per compound per species.

[5] = ITC, 25 °C, read-out: SaSiaT Kd

Chain of SaSiaT (A0A0H2XJ46 entry or part of it): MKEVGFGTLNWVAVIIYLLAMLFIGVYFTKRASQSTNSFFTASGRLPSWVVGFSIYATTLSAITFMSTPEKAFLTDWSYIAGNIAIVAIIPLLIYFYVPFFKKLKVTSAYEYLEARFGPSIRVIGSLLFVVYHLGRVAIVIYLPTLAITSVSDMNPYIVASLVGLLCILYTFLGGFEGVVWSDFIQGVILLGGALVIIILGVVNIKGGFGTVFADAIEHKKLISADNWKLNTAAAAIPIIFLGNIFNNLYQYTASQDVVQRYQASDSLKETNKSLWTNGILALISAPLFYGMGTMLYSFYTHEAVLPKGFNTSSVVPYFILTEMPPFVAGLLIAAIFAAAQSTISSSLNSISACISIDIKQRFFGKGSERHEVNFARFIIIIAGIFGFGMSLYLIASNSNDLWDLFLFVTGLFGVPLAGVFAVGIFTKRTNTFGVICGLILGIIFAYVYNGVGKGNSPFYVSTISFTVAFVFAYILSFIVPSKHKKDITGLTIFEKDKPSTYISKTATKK

With `CC(=O)NC1C(OCc2ccccc2)CC(O)(C(=O)O)OC1C(O)C(O)CO` (stereo not shown) [Compound 3a] the “PmSiaT -TΔS°” value (PmSiaT; ITC) was -13.9 kcal/mol, the “PmSiaT ΔG°” value (PmSiaT; ITC) was -6.91 kcal/mol and the “PmSiaT ΔH°” value (PmSiaT; ITC) was 7 kcal/mol. The Kd (PmSiaT; PmSiaT Kd, ITC, 25 °C) was 9 ± 3.2 µM, the Kd (PmSiaT; PmSiaT Kd, ITC, Table S4) was 8.77 µM and the “SaSiaT -TΔS°” value (SaSiaT; ITC) was -16 kcal/mol. For the same compound, the “SaSiaT ΔG°” value (SaSiaT; ITC) was -6.91 kcal/mol, the “SaSiaT ΔH°” value (SaSiaT; ITC) was 9.08 kcal/mol and the Kd (SaSiaT; [5]) was 8.8 ± 2.7 µM. For the same compound, the logD (LogD pH 7.4 shake flask) was less than -0.5, the microsomal CLint at 1 µM [1] was less than 10 µL/min/mg and the “Metabolic stability in human microsomes, Exp. 1” value [1] was less than 10 µL/min/mg protein. For the same compound, the “Metabolic stability in human microsomes, Exp. 2” value [1] was less than 10 µL/min/mg protein, the “Metabolic stability in mouse microsomes, Exp. 1” value [2] was less than 10 µL/min/mg protein and the “Metabolic stability in mouse microsomes, Exp. 2” value [2] was less than 10 µL/min/mg protein. The microsomal CLint at 1 µM [2] was less than 10 µL/min/mg, the “Metabolic stability in rat microsomes, Exp. 1” value [3] was less than 10 µL/min/mg protein and the “Metabolic stability in rat microsomes, Exp. 2” value [3] was less than 10 µL/min/mg protein. For the same compound, the microsomal CLint at 1 µM [3] was less than 10 µL/min/mg and the fraction unbound at 4 h, 5 μM [4] was 0.63 to 0.85.
For `CC(=O)NC1C(OCc2cc(F)cc(F)c2)CC(O)(C(=O)O)OC1C(O)C(O)CO` (stereo not shown) [Compound 3e], the “PmSiaT -TΔS°” value (PmSiaT; ITC) was -15.7 kcal/mol, the “PmSiaT ΔG°” value (PmSiaT; ITC) was -7.12 kcal/mol and the “PmSiaT ΔH°” value (PmSiaT; ITC) was 8.58 kcal/mol. For the same compound, the Kd (PmSiaT; PmSiaT Kd, ITC, 25 °C) was 6.2 ± 2.8 µM, the Kd (PmSiaT; PmSiaT Kd, ITC, Table S4) was 6.07 µM and the “SaSiaT -TΔS°” value (SaSiaT; ITC) was -16.5 kcal/mol. For the same compound, the “SaSiaT ΔG°” value (SaSiaT; ITC) was -7.36 kcal/mol, the “SaSiaT ΔH°” value (SaSiaT; ITC) was 9.15 kcal/mol and the Kd (SaSiaT; [5]) was 4.1 ± 2.1 µM. The “affinity increase for SaSiaT” value (SaSiaT; compared to Neu5Ac) was 31 fold, the logD (LogD pH 7.4 shake flask) was less than -0.5 and the microsomal CLint at 1 µM [1] was less than 10 µL/min/mg. For the same compound, the “Metabolic stability in human microsomes, Exp. 1” value [1] was less than 10 µL/min/mg protein, the “Metabolic stability in human microsomes, Exp. 2” value [1] was less than 10 µL/min/mg protein and the “Metabolic stability in mouse microsomes, Exp. 1” value [2] was less than 10 µL/min/mg protein. For the same compound, the “Metabolic stability in mouse microsomes, Exp. 2” value [2] was less than 10 µL/min/mg protein, the microsomal CLint at 1 µM [2] was less than 10 µL/min/mg and the “Metabolic stability in rat microsomes, Exp. 1” value [3] was less than 10 µL/min/mg protein. The “Metabolic stability in rat microsomes, Exp. 2” value [3] was less than 10 µL/min/mg protein, the microsomal CLint at 1 µM [3] was less than 10 µL/min/mg and the fraction unbound at 4 h, 5 μM [4] was 0.63 to 0.85.
For `CC(=O)NC1C(OCc2cc(Br)cc(Br)c2)CC(O)(C(=O)O)OC1C(O)C(O)CO` (stereo not shown) [Compound 3f], the “PmSiaT -TΔS°” value (PmSiaT; ITC) was -17.8 kcal/mol, the “PmSiaT ΔG°” value (PmSiaT; ITC) was -8.96 kcal/mol and the “PmSiaT ΔH°” value (PmSiaT; ITC) was 8.87 kcal/mol. The Kd (PmSiaT; PmSiaT Kd, ITC, 25 °C) was 0.27 ± 0.14 µM, the Kd (PmSiaT; PmSiaT Kd, ITC, Table S4) was 0.272 µM and the “affinity increase of binding for PmSiaT” value (PmSiaT; compared to the natural substrate Neu5Ac) was 180 fold. For the same compound, the “SaSiaT -TΔS°” value (SaSiaT; ITC) was -13.1 kcal/mol, the “SaSiaT ΔG°” value (SaSiaT; ITC) was -6.55 kcal/mol and the “SaSiaT ΔH°” value (SaSiaT; ITC) was 6.57 kcal/mol. For the same compound, the Kd (SaSiaT; [5]) was 15.7 ± 7.3 µM, the logD (LogD pH 7.4 shake flask) was less than 0 and the microsomal CLint at 1 µM [1] was less than 10 µL/min/mg. For the same compound, the “Metabolic stability in human microsomes, Exp. 1” value [1] was less than 10 µL/min/mg protein, the “Metabolic stability in human microsomes, Exp. 2” value [1] was less than 10 µL/min/mg protein and the “Metabolic stability in mouse microsomes, Exp. 1” value [2] was less than 10 µL/min/mg protein. The “Metabolic stability in mouse microsomes, Exp. 2” value [2] was less than 10 µL/min/mg protein, the microsomal CLint at 1 µM [2] was less than 10 µL/min/mg and the “Metabolic stability in rat microsomes, Exp. 1” value [3] was less than 10 µL/min/mg protein. For the same compound, the “Metabolic stability in rat microsomes, Exp. 2” value [3] was less than 10 µL/min/mg protein, the microsomal CLint at 1 µM [3] was less than 10 µL/min/mg and the fraction unbound at 4 h, 5 μM [4] was 0.21 to 0.27.
For `CC(=O)N[C@H]1[C@H]([C@H](O)[C@H](O)CO)OC(O)(C(=O)O)C[C@@H]1O` (stereo partly shown) [Neu5Ac, 5-N-acetyl neuraminic acid, reference compound], the Kd (PmSiaT) was 50 ± 9 µM, the “PmSiaT -TΔS°” value (PmSiaT; ITC) was -12.6 kcal/mol and the “PmSiaT ΔG°” value (PmSiaT; ITC) was -5.86 kcal/mol. For the same compound, the “PmSiaT ΔH°” value (PmSiaT; ITC) was 6.72 kcal/mol, the Kd (SaSiaT) was 130 ± 35 µM and the “SaSiaT -TΔS°” value (SaSiaT; ITC) was -14.7 kcal/mol. For the same compound, the “SaSiaT ΔG°” value (SaSiaT; ITC) was -5.31 kcal/mol and the “SaSiaT ΔH°” value (SaSiaT; ITC) was 9.37 kcal/mol.

Source: PMC9295122, “Sialic Acid Derivatives Inhibit SiaT Transporters and Delay Bacterial Growth” (ACS Chemical Biology, 2022)
